# From US5705491A, “Adenosine deaminase inhibitor” (Nippon Zoki Pharmaceutical Co., Ltd., priority 1992, dated 1998)
# Key:
# [1] = test system: rats administered with puromycin aminonucleoside (nephritis model); experiment: Therapeutic action to nephritis (puromycin aminonucleoside rats); assay type: in vivo, male rat (SD strain); conditions: 50 mg/kg oral, five consecutive days
# Method: 2. Therapeutic Action to Nephritis.
# When puromycin aminonucleoside is administered to rats, symptoms similar to protein-rich urine, hypoproteinemia, hyperlipemia, nephrotic syndrome, etc, result and, therefore, rats which are administered with puromycin aminonucleoside have been used as pathological model animals for nephritis. The chemical name for puromycin aminonucleoside is 3'-amino-3'-deoxy-N,N-dimethyladenosine. A method by Endo, et al. [Sogo Rinsho, vol. 38, no. 5, page 821 (1989)] was somewhat modified and used as a test method here. Thus, a solution of puromycin aminonucleoside was dissolved in a physiological saline liquid and administered just once to a tail vein of a male rat (SD strain) of about 200 g body weight at a dose of 100 mg/kg (the initial of zero-th day).
# The compound to be tested was dissolved in a physiological saline liquid and was given orally for five consecutive days from the zero-th day at a dose of 50 mg/kg each. After 24 hours, the accumulated urine was collected and the amount of urine and the amount of protein in the urine was measured. Blood was collected on the tenth day and the total protein in serum, creatinine in serum and urea nitrogen were measured.
# Examples of the results are given in Tables 2 and where the control is those animals injected only with the puromycin aminonucleoside: […]
# [2] = test system: Human peripheral polymorphonuclear leukocyte (PML); experiment: Inhibitory action against activated oxygen (superoxide) generation; assay type: cell-based; conditions: FMLP 10^-7 M; for inhibition at 100 µM: 1 × 10^-4 M; for inhibition at 10 µM: 1 × 10^-5 M; for inhibition at 1 µM: 1 × 10^-6 M
# Method: 3. Inhibitory Action against Activated Oxygen Generation
# Human peripheral polymorphonuclear leukocyte (PML, 2×10^6 cells) prepared in a conventional method, bovine heart cytochrome C type-III (75 nmol), cytocharasin (5 μg) and tested drug were mixed with HEPES-buffered saline solution (final 1 ml) and incubated for 5 minutes at 37° C. N-Formyl-methionyl-leucyl-phenylalanine (FMLP) was added (final 10^-7 M) and incubated for 5 minutes. Immediately after the incubation, the reaction mixture was centrifuged at 4° C., and then the absorbance at 550 nm of the supernatant was measured with a spectrophotometer.
# An excess amount of bovine liver superoxide dismutase (SOD) was added to the reaction mixture and the absorbance of the supernatant was also measured in the same manner as above as a blank value.
# A portion of adenosine deaminase (ADA) may be removed during the preparation of human peripheral PML. Therefore, the inhibitory action against the generation of superoxide of the tested drug was measured in the same manner as mentioned above, adding 0.02 units of bovine liver ADA with human peripheral PML.
# The inhibition against superoxide generation was calculated by the following equation, and examples of the results are given in Table 4. [formula]
# [3] = test system: ischemic edema of hind paw of mice; experiment: Suppressive action against ischemic edema; assay type: in vivo, ICR-strain male mice
# Method: 4. Suppressive Action against Ischemic Edema
# The right hind paw of ICR-strain male mice (11 weeks of age) were fastened with a rubber band to stop the blood stream for 20 minutes, and then the rubber band was removed to recover the blood stream. The tested drug was administered intravenously before the treatment. Each of the right and left hind paws were weighed and the suppressive action was measured according to the weight difference between the treated and untreated paws.
# [4] = target: T1, adenosine deaminase of type VII (mucous membrane of intestinal tract of calf) (Bos taurus, UniProt P56658); experiment: Adenosine deaminase inhibiting action; assay type: biochemical; conditions: 25° C., 0.05M phosphate buffer pH 7.5, adenosine substrate, 5 minutes, Lineweaver-Burk plots
# T1 construct: from tissue; host or cells: mucous membrane of intestinal tract of calf
# T1 sequence (P56658 1-363): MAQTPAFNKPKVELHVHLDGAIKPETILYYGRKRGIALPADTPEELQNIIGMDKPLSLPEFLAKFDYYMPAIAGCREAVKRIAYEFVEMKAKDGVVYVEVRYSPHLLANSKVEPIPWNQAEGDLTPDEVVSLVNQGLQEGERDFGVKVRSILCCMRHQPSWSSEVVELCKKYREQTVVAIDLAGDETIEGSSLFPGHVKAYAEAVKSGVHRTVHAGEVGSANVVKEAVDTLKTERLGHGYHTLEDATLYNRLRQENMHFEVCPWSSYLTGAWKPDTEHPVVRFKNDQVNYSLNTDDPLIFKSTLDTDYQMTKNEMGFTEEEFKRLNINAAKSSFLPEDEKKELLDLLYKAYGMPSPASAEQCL
# Method: 1. Adenosine Deaminase Inhibiting Action
# The enzymatic reaction was conducted at 25° C. in a 0.05M phosphate buffer (pH=7.5). Thus, a reaction solution comprising 800 μl of substrate solution (adenosine), 100 μl of a solution to be tested and 100 μl of enzyme solution (adenosine deaminase of type VII; mucous membrane of intestinal tract of calf) was reacted for 5 minutes and the reaction was stopped by adding 100 μl of acetic acid. Then the amount of inosine produced was determined by means of an HPLC to measure the inhibiting activity. The test was conducted for various substrate concentrations and Ki values were measured by Lineweaver-Burk plots.
# [5] = with ADA (0.02 units bovine liver)
smiles,measurement,setting,value
"CNc1nc(C)nc2c1ncn2[C@@H]1O[C@H](CO)[C@@H](O)[C@H]1OC [Compound 27, 2, N^6,2'-O-Trimethyladenosine]",Serum Creatinine,[1]; blood on tenth day,0.71 mg/dL
same,Total Protein in Serum,[1]; blood on tenth day,7.44 g/dL
same,Urea Nitrogen,[1]; blood on tenth day,31.9 mg/dL
same,Amount of Protein in Urine,[1]; 1st day,0 mg/day
same,Amount of Protein in Urine,[1]; 2nd day,29.2 mg/day
same,Amount of Protein in Urine,[1]; 3rd day,33.8 mg/day
same,Amount of Protein in Urine,[1]; 4th day,122.5 mg/day
same,Amount of Protein in Urine,[1]; 5th day,399.8 mg/day
same,Amount of Protein in Urine,[1]; 6th day,443.7 mg/day
same,Amount of Protein in Urine,[1]; 7th day,558.7 mg/day
same,Amount of Protein in Urine,[1]; 8th day,595.6 mg/day
same,Amount of Protein in Urine,[1]; 9th day,593.5 mg/day
same,Amount of Protein in Urine,[1]; 10th day,528.6 mg/day
same,inhibition at 100 µM,[2]; [5],88%
same,inhibition at 10 µM,[2]; [5],77%
same,inhibition at 1 µM,[2]; [5],34%
same,inhibition at 0.1 µM,"[2]; with ADA (0.02 units bovine liver), 1 × 10^-7 M",10%
same,inhibition at 1000 µM,"[2]; without ADA, 1 × 10^-3 M",100%
same,inhibition at 100 µM,[2]; without ADA,79%
same,inhibition at 10 µM,[2]; without ADA,22%
same,inhibition at 1 µM,[2]; without ADA,2%
same,"Paw Weight, Treated","[3]; 10 mg/kg intravenous before ischemia, treated paw",254.4 ± 6.6 mg
same,Inhibition (of ischemic edema),"[3]; 10 mg/kg intravenous, from weight difference between treated and untreated paws",67.7%
same,Ki,[4],859 nM
